Results on 21 molecules are retold here after patent publication US20240166669A1, “QUINAZOLINE AMINE DERIVATIVES AS KRAS INHIBITORS” (Nikang Therapeutics, Inc., priority 2021, published 2024).

As a reminder, the EC50 is the concentration at which the effect is half-maximal.

T1 sequence (P01116 1-188 isoform P01116-2 G12D): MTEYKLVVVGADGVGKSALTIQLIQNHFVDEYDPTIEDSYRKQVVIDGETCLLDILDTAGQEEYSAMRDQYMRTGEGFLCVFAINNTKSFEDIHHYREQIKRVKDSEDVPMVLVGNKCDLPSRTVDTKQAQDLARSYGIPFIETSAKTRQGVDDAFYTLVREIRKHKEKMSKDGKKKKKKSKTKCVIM

The assay concerns the target T1, K-Ras G12D (Homo sapiens, UniProt P01116, G12D).
T1 construct: AGS (Cobioer, CBP60476) cell lines which harbor KRAS G12D mutation; host or cells: AGS
As to the kind of experiment: p-ERK Cellular 2-Plate Assay (Biological Example 2). The class given is cell-based. The conditions noted are these: AGS cells (KRAS G12D), 3 h treatment, AlphaLISA p-ERK1/2, 2-plate; Biological Example 2 (unmarked values); read-out: AGS PERK EC50. How it is done: The ability of the compound of Formula (IIA′), (II′), or (II) or a pharmaceutically acceptable salt thereof (test compound) to inhibit K-Ras G12D activity was tested using AGS (Cobioer, CBP60476) cell lines which harbor KRAS G12D mutation as described below.
AGS (Cobioer, CBP60476) were seeded in 384-well plates and cultured overnight (10.000 cells per well 40 μl total volume). The following morning, cells were treated with test compound, with staring concentration at 10 μM and 3-fold dilution down to 0.5 nM for 3 h at 37° C., DMSO treatment served as control. p-ERK was then measured using AlphaLISA SureFire Ultra p-ERK1/2 (Thr202/Tyr204) Assay Kit (Perkin Elmer, cat #ALSU-PERK) following the manufacturer's instruction as follows.
Briefly, the culture medium was removed and 20 μl 1× lysis buffer was added to each well, followed by 30 minutes incubation on a plate shaker at room temperature. Then 10 μl of lysate was transferred to a white 384-well plate. Acceptor mixture was prepared according to manufacturer's instruction. 5 μl acceptor mixture was added to the cell lysate and the plate was wrapped with foil, spun at 500 rpm for 10 s, and incubated at RT for 60 min. Donor mixture was prepared under subdued light. 5 μl donor mixture was added to the cell lysate and the plate was spun at 500 rpm for 10s and incubated at RT for another 60 min. in the dark. Signal was then measured on a EnVision 2105 multimode plate reader. Percentage inhibition was calculated with DMSO treatment as 100% of signal, and IC50 was calculated by XLfit 5.5.x.
(In general: Bead proximity is the source of the signal in Alpha formats.)
On to `C#Cc1c(F)ccc2cc(O)cc(-c3ncc4c(N5C[C@H]6CC[C@@H](C5)N6)nc(OC[C@@]56CC7COc8ccccc8C7N5C[C@@H](F)C6)nc4c3F)c12` (stereo partly drawn) [Example 41, 4-(4-((1R,5S)-3,8-diazabicyclo[3.2.1]octan-3-yl)-8-fluoro-2-(((9S)-9-fluoro-6a,9,10,11a-tetrahydro-6H,7H-chromeno[3,4-b]pyrrolizin-7a(8H)-yl)methoxy)pyrido[4,3-d]pyrimidin-7-yl)-5-ethynyl-6-fluoronaphthalen-2-ol], for which the EC50 was greater than 100 nM.

Take `C#Cc1cccc2cc(O)cc(-c3ncc4c(N5CC6CCC(C5)N6)nc(OCC56CCCN5Cc5ccc(F)cc56)nc4c3F)c12` (stereo not drawn) [Example 26, 4-(4-(3,8-diazabicyclo[3.2.1]octan-3-yl)-8-fluoro-2-((8-fluoro-2,3-dihydro-1H-pyrrolo[2,1-a]isoindol-9b(5H)-yl)-methoxy)pyrido[4,3-d]pyrimidin-7-yl)-5-ethynylnaphthalen-2-ol]: the EC50 is 7 nM.

In the case of `C#Cc1cccc2cc(O)cc(-c3ncc4c(N5CC6C=C(C#N)C(C5)N6)nc(OCC56CCCN5CCC6)nc4c3F)c12` (stereo not drawn) [Example 7, 3-(7-(8-ethynyl-3-hydroxynaphthalen-1-yl)-8-fluoro-2-((tetrahydro-1H-pyrrolizin-7a(5H)-yl)methoxy)pyrido[4,3-d]pyrimidin-4-yl)-3,8-diazabicyclo[3.2.1]oct-6-ene-6-carbonitrile], the EC50 was determined as 260 nM.

In the case of `C#Cc1cccc2cc(O)cc(-c3ncc4c(N5CC6CCC(C5)N6)nc(OCC56CCCN5Cc5cc(F)ccc56)nc4c3F)c12` (stereo not drawn) [Example 25, 4-(4-(3,8-diazabicyclo[3.2.1]octan-3-yl)-8-fluoro-2-((7-fluoro-2,3-dihydro-1H-pyrrolo[2,1-a]isoindol-9b(5H)-yl)-methoxy)pyrido[4,3-d]pyrimidin-7-yl)-5-ethynylnaphthalen-2-ol], the EC50 is 3 nM.

For `C#Cc1cccc2cc(O)cc(-c3ncc4c(N5CC6CCC(C5)N6)nc(OCC56CCCN5CC(=CC)C6)nc4c3F)c12` (stereo not drawn) [Example 15], the EC50 was 0.1 nM.

Regarding `C#Cc1cccc2cc(O)cc(-c3ncc4c(N5C[C@H]6CC[C@@H](C5)N6)nc(OCC56CCCN5Cc5c6cnn5C)nc4c3F)c12` (stereo partly drawn) [Example 36, 4-(4-((1R,5S)-3,8-diazabicyclo[3.2.1]octan-3-yl)-8-fluoro-2-((1-methyl-1,5,6,8-tetrahydropyrazolo[4,3-a]pyrrolizin-3b(4H)-yl)methoxy)pyrido[4,3-d]pyrimidin-7-yl)-5-ethynylnaphthalen-2-ol], the EC50 was determined as 5.2 nM.

As to `C#Cc1c(F)ccc2cccc(-c3ncc4c(N5C[C@H]6CC[C@@H](C5)N6)nc(OCC56CCCN5CC(=CC)C6)nc4c3F)c12` (stereo partly drawn) [Example 48, 4-((1R,5S)-3,8-diazabicyclo[3.2.1]octan-3-yl)-2-((2-ethylidenetetrahydro-1H-pyrrolizin-7a(5H)-yl)methoxy)-7-(8-ethynyl-7-fluoronaphthalen-1-yl)-8-fluoropyrido[4,3-d]pyrimidine], the EC50 turned out to be 33 nM.

On to `C#Cc1cccc2cc(O)cc(-c3ncc4c(N5C[C@H]6CC[C@@H](C5)N6)nc(OCC56CCCN5Cc5c(OC)cccc56)nc4c3F)c12` (stereo partly drawn) [Example 29, 4-(4-((1R,5S)-3,8-diazabicyclo-[3.2.1]octan-3-yl)-8-fluoro-2-((6-methoxy-2,3-dihydro-1H-pyrrolo[2,1-a]-isoindol-9b(5H)-yl)methoxy)-pyrido[4,3-d]-pyrimidin-7-yl)-5-ethynylnaphthalen-2-ol], for which the EC50 was 2 nM.

For `C#Cc1cccc2cc(O)cc(-c3ncc4c(N5C[C@H]6CC[C@@H](C5)N6)nc(OCC56CCCN5c5ccccc5C6)nc4c3F)c12` (stereo partly drawn) [Example 5, 4-(4-((1R,5S)-3,8-diazabicyclo[3.2.1]octan-3-yl)-2-((2,3-dihydro-1H-pyrrolo[1,2-a]-indol-9a(9H)-yl)methoxy)-8-fluoropyrido[4,3-d]pyrimidin-7-yl)-5-ethynylnaphthalen-2-ol], the half-maximal effective concentration (EC50) is 320 nM.

Regarding `C=C1CN2CCCC2(COc2nc(N3C[C@H]4CC[C@@H](C3)N4)c3cnc(-c4cc(O)cc5cccc(F)c45)c(F)c3n2)C1` (stereo partly drawn) [Example 22, 4-(4-((1R,5S)-3,8-diazabicyclo-[3.2.1]octan-3-yl)-8-fluoro-2-((2-methylenetetrahydro-1H-pyrrolizin-7a(5H)-yl)methoxy)pyrido[4,3-d]-pyrimidin-7-yl)-5-fluoronaphthalen-2-ol], the EC50 stood at 1 nM.

For the molecule `C#Cc1cccc2cc(O)cc(-c3ncc4c(N5CC6CCC(C5)N6)nc(OCC56CCCN5Cc5cccc(F)c56)nc4c3F)c12` (stereo not drawn) [Example 27, 4-(4-(3,8-diazabicyclo[3.2.1]octan-3-yl)-8-fluoro-2-((9-fluoro-2,3-dihydro-1H-pyrrolo[2,1-a]isoindol-9b(5H)-yl)-methoxy)pyrido[4,3-d]pyrimidin-7-yl)-5-ethynylnaphthalen-2-ol], the EC50 was 20 nM.

For the molecule `C#Cc1cccc2cc(O)cc(-c3ncc4c(N5CC6CC7(CC7)C(C5)N6)nc(OCC56CCCN5CCC6)nc4c3F)c12` (stereo not drawn) [Example 53, 5-ethynyl-4-(8-fluoro-4-(3,8-diazaspiro[bicyclo[3.2.1]octane-6,1′-cyclopropan]-3-yl)-2-((tetrahydro-1H-pyrrolizin-7a(5H)-yl)methoxy)pyrido[4,3-d]pyrimidin-7-yl)naphthalen-2-ol], the EC50 turned out to be 266 nM.

Regarding `C#Cc1cccc2cc(O)cc(-c3ncc4c(N5CC6CCC(C5)N6)nc(OC[C@]56CCCN5[C@H]5c7cccnc7OCC5C6)nc4c3F)c12` (mixture of isomers) [Example 38], the EC50 was determined as 1.1 nM.

On to `C#Cc1c(F)ccc2cccc(-c3c(Cl)cc4c(N5C[C@H]6CC[C@@H](C5)N6)nc(OCC56CCCN5CC(=C)C6)nc4c3F)c12` (stereo partly drawn) [Example 55, 4-((1R,5S)-3,8-diazabicyclo[3.2.1]octan-3-yl)-6-chloro-7-(8-ethynyl-7-fluoronaphthalen-1-yl)-8-fluoro-2-((2-methylenetetrahydro-1H-pyrrolizin-7a(5H)-yl)methoxy)quinazoline], for which the EC50 is greater than 100 nM.

On to `C#Cc1cccc2cc(O)cc(-c3ncc4c(N5C[C@H]6CC[C@@H](C5)N6)nc(OCC56CCCN5Cc5ccccc56)nc4c3F)c12` (stereo partly drawn) [Example 6, 4-(4-((1R,5S)-3,8-diazabicyclo[3.2.1]octan-3-yl)-2-((2,3-dihydro-1H-pyrrolo[2,1-a]-isoindol-9b(5H)-yl)methoxy)-8-fluoropyrido[4,3-d]pyrimidin-7-yl)-5-ethynylnaphthalen-2-ol], for which the EC50 was 0.6 nM.

Consider `C#Cc1cccc2cc(O)cc(-c3ncc4c(N5CC6CCC(C5)N6)nc(OC[C@@]56CCCN5[C@@H]5CCOCC5C6)nc4c3F)c12` (mixture of isomers) [Example 23], for which the EC50 was determined as 0.48 nM.

For `C#Cc1cccc2cc(O)cc(-c3ncc4c(N5C[C@H]6CC[C@@H](C5)N6)nc(OCC56CCCN5CC(=CF)C6)nc4c3F)c12` (stereo partly drawn) [Example 2, 4-(4-((1R,5S)-3,8-diazabicyclo[3.2.1]octan-3-yl)-8-fluoro-2-((2-(fluoro-methylene)tetrahydro-1H-pyrrolizin-7a(5H)-yl)methoxy)pyrido[4,3-d]pyrimidin-7-yl)-5-ethynylnaphthalen-2-ol], the EC50 is 0.2 nM.

Turning to `C#Cc1cccc2cc(O)cc(-c3ncc4c(N5C[C@H]6CC[C@@H](C5)N6)nc(OCC56CCCN5Cc5cc(OC)ccc56)nc4c3F)c12` (stereo partly drawn) [Example 30, 4-(4-((1R,5S)-3,8-diazabicyclo-[3.2.1]octan-3-yl)-8-fluoro-2-((7-methoxy-2,3-dihydro-1H-pyrrolo[2,1-a]isoindol-9b(5H)-yl)methoxy)-pyrido[4,3-d]-pyrimidin-7-yl)-5-ethynylnaphthalen-2-ol], the EC50 was found to be 4 nM.

Take `C#Cc1cccc2cc(O)cc(-c3ncc4c(N5CC6CCC(C5)N6)nc(OCC56CCCN5Cc5c(F)cccc56)nc4c3F)c12` (stereo not drawn) [Example 24, 4-(4-(3,8-diazabicyclo[3.2.1]octan-3-yl)-8-fluoro-2-((6-fluoro-2,3-dihydro-1H-pyrrolo[2,1-a]isoindol-9b(5H)-yl)-methoxy)pyrido[4,3-d]pyrimidin-7-yl)-5-ethynylnaphthalen-2-ol]: the EC50 came to 3.7 nM.

Take `C#Cc1cccc2cc(O)cc(-c3ncc4c(N5C[C@H]6CC[C@@H](C5)N6)nc(OCC56CCCN5CC(=C)C6)nc4c3F)c12` (stereo partly drawn) [Example 1, 4-(4-((1R,5S)-3,8-diazabicyclo[3.2.1]octan-3-yl)-8-fluoro-2-((2-methylene-tetrahydro-1H-pyrrolizin-7a(5H)-yl)methoxy)pyrido[4,3-d]pyrimidin-7-yl)-5-ethynyl-naphthalen-2-ol]: the EC50 stood at 0.2 nM.

Regarding `C#Cc1cccc2cc(O)cc(-c3ncc4c(N5C[C@H]6CC[C@@H](C5)N6)nc(OCC56CCCN5Cc5c(COC)cccc56)nc4c3F)c12` (stereo partly drawn) [Example 33, 4-(4-((1R,5S)-3,8-diazabicyclo-[3.2.1]octan-3-yl)-8-fluoro-2-((6-(methoxymethyl)-2,3-dihydro-1H-pyrrolo[2,1-a]isoindol-9b(5H)-yl)methoxy)-pyrido[4,3-d]pyrimidin-7-yl)-5-ethynylnaphthalen-2-ol], the EC50 came out at 1.4 nM.
